The source made the active and inactive calls.
Columns and labels:
Cysteine protease ATG4B = target: T1, Cysteine protease ATG4B (Homo sapiens, UniProt Q9Y4P1); format: functional;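 also: Fluorescence-based dose-response confirmation assay measuring inhibition of ATG4B activity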
T1 sequence (Q9Y4P1 whole entry): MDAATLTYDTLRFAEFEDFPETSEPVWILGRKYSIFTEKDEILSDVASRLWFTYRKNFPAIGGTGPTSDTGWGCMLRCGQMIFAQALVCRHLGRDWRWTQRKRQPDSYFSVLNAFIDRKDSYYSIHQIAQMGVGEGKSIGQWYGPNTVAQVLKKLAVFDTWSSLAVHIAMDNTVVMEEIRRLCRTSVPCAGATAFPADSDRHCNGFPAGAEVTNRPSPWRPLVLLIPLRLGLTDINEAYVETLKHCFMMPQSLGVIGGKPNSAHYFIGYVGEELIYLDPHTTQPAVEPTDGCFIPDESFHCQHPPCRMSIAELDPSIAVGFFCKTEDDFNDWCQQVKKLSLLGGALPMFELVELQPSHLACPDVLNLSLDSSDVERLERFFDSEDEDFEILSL

Phospholipase A2 = Phospholipase A2 (Homo sapiens, UniProt P04054); format: functional;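 also: confirmatory dose-response counterscreen on phospholipase A2, testing hits that came from an ultra-high-throughput screen for ATG4B inhibitors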
Caspase-3 = target: T2, Caspase-3 (Homo sapiens, UniProt P42574); format: functional;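 also: Dose-response selectivity test against caspase-3 for candidate inhibitors of sentrin-specific proteases (SENPs)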
T2 sequence (P42574 whole entry): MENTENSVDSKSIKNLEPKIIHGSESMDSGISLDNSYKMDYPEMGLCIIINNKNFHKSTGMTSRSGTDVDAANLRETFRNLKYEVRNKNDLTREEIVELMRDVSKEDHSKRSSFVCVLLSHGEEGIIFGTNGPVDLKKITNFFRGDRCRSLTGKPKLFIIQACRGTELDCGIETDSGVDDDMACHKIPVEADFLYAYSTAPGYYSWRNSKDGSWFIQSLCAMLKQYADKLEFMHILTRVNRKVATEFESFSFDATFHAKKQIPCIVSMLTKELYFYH

[1] = target: T3, Sentrin-specific protease 8 (Homo sapiens, UniProt Q96LD8); format: functional;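 also: luminescence read-out of SENP8 inhibition, dose-response confirmation following an ultra-high-throughput screen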
T3 sequence (Q96LD8 whole entry): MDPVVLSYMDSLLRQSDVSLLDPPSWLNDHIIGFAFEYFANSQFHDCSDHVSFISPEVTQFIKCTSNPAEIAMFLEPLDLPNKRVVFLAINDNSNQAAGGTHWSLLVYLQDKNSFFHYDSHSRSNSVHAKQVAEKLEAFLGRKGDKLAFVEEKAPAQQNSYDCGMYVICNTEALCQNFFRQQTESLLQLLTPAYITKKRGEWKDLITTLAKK

[2] = target: T4, Sentrin-specific protease 7 (Homo sapiens, UniProt Q9BQF6); format: functional;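 also: Luminescence-based dose-response confirmation of ultra-high-throughput screening hits, measuring inhibition of SENP7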
T4 sequence (Q9BQF6 whole entry): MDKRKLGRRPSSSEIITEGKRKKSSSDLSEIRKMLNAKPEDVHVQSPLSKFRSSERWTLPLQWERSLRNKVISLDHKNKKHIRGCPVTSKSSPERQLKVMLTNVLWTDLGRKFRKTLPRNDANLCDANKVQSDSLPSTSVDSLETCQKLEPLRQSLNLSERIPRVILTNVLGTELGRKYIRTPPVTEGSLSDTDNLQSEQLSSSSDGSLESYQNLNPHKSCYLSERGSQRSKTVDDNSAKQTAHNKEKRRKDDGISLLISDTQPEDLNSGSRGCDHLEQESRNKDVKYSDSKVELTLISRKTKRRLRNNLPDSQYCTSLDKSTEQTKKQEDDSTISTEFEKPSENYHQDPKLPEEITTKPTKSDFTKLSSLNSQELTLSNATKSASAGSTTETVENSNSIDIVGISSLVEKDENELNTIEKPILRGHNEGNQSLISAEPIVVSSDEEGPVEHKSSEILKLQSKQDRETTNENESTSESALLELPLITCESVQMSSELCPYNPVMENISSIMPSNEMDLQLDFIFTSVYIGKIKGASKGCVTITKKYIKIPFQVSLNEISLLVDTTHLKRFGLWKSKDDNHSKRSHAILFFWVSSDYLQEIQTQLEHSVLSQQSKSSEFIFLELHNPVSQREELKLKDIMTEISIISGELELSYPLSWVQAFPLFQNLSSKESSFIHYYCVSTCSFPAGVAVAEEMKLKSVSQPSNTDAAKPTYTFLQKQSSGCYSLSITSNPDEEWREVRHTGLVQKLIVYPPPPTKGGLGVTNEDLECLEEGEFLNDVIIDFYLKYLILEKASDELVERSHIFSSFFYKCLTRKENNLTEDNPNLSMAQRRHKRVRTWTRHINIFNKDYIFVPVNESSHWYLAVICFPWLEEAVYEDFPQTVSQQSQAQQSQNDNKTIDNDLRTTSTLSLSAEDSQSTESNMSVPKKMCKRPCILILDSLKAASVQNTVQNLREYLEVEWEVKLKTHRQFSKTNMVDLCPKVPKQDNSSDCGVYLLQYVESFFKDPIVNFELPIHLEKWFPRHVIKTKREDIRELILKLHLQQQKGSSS

[3] = target: T5, Sentrin-specific protease 6 (Homo sapiens, UniProt Q9GZR1); format: functional;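 also: Luminescence-based dose-response confirmatory assay of SENP6 inhibition, following up an ultra-high-throughput screen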
T5 sequence (Q9GZR1 whole entry): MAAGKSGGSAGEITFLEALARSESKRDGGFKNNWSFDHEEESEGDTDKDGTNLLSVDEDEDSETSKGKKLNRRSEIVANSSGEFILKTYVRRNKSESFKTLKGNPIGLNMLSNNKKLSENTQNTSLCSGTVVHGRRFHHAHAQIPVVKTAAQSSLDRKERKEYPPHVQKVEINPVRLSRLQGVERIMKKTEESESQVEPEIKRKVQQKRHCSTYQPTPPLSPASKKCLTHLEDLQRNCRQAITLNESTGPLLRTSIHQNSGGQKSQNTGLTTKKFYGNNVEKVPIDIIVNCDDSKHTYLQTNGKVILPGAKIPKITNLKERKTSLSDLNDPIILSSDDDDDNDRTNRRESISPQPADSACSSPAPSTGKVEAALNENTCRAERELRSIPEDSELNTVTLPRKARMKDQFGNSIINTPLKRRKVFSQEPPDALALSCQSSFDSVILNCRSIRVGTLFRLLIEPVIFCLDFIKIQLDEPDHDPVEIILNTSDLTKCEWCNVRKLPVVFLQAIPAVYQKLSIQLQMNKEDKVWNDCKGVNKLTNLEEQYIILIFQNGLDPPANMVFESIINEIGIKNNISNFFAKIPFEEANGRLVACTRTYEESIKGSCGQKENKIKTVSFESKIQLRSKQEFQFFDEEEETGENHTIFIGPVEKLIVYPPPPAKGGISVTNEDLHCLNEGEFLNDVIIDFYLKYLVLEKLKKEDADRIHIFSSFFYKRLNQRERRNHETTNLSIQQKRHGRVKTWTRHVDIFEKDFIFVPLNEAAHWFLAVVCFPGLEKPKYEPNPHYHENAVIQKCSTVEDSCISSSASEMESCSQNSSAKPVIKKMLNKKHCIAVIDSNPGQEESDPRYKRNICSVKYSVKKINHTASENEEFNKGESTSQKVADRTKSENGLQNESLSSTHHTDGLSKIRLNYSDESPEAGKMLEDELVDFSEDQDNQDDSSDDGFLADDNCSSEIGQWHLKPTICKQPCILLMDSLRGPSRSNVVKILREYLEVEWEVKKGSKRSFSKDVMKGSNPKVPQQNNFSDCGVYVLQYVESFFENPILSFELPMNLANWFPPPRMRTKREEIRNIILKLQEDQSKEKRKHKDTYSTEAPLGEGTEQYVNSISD

[4] = Luminescence Cell-Based Dose Confirmation HTS to Identify Activators of 5'UTR Stem-Loop Driven Alpha-Synuclein mRNA Translation in H4 Neuroglioblastoma Cells. [Related pubchem assays: 1829 (Project Summary), 1814 (Primary HTS)]; format: functional
H4 = test: Luminescence Cell-Based Dose Response HTS to Identify Activators of 5'UTR Stem-Loop Driven Prion Protein mRNA Translation in H4 Neuroglioblastoma Cells. [Related pubchem assays: 1829 (Project Summary), 1814 (Primary HTS)]; format: functional; conditions: Homo sapiens
[5] = Luminescence Cell-Based Dose Response HTS to Identify Activators of Luciferase Translation or Activity in H4 […] Cells. [Related pubchem assays: 1829 (Project Summary), 1814 (Primary HTS)]; format: functional
[6] = Luminescence Cell-Based Dose Retest to Confirm Inhibitors of Cancer Stem Cells. [Related pubchem assays (depositor defined):AID2717, AID2721]; format: functional; conditions: Homo sapiens
[7] = target: T6, Heat shock factor protein 1 (Mus musculus, UniProt P38532); test: decrease of HSF1-responsive luciferase luminescence – cell-based, NIH3T3, dose retest, confirmation (AID 2382); format: functional;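 also: NIH3T3 fibroblasts with HSF1-driven luciferase reporter stressed by proteasome inhibitor MG132; luminescence from HSF1-driven luciferase expression after 8 hours of MG132 stress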
T6 sequence (P38532 whole entry): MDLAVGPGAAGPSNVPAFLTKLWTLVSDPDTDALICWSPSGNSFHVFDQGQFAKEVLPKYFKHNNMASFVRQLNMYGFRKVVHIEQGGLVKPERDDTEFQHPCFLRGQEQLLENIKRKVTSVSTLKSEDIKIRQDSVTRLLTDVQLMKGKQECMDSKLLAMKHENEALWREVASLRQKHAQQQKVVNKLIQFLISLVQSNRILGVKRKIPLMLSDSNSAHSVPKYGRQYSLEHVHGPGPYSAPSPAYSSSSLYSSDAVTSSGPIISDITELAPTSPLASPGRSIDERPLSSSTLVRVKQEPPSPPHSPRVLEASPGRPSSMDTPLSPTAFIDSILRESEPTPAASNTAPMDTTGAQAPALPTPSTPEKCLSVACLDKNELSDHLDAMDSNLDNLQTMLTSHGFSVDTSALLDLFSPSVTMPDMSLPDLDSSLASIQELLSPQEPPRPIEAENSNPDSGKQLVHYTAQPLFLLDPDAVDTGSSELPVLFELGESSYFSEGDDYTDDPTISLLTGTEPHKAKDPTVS

Protein Wnt-3a = Protein Wnt-3a (Mus musculus, UniProt P27467); test: antagonism of Wnt3a pathway luciferase reporter – Wnt-LIGHT cells, luminescence, selectivity assay for Gli-SUFU antagonist project, dose response (AID 651570); format: functional; conditions: read-out: IC50_Mean;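 also: Wnt-LIGHT reporter cells stimulated with conditioned medium from Wnt3a-producing cells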
[8] = target: Heat shock protein HSP 90-alpha (Homo sapiens, UniProt P07900); format: functional, organism-based
[9] = target: T7, Rac GTPase-activating protein 1 (Homo sapiens, UniProt Q9H0H5); test: blockers of MgcRacGAP-driven Rac1 GTP hydrolysis – biochemical, ADP Hunter fluorescence, primary and confirmatory, confirmation (AID 624330); format: functional
T7 sequence (Q9H0H5 whole entry): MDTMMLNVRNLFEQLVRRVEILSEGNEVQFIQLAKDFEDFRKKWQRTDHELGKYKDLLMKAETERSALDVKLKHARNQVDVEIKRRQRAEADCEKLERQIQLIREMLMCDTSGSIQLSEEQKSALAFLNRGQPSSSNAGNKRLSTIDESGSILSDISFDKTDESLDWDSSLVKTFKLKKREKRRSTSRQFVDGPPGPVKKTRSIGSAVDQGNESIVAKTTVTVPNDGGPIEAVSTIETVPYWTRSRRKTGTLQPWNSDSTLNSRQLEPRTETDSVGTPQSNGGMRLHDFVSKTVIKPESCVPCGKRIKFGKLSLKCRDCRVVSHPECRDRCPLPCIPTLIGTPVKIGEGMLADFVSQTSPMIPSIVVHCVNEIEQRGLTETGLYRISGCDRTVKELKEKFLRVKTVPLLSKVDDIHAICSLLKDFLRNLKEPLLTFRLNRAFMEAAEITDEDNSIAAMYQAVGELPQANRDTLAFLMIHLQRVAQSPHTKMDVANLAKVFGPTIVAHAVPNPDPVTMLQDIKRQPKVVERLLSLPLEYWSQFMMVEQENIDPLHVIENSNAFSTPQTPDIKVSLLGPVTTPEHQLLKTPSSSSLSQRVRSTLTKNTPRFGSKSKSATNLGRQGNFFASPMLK

Phospholipase A2, sequence (P04054 whole entry): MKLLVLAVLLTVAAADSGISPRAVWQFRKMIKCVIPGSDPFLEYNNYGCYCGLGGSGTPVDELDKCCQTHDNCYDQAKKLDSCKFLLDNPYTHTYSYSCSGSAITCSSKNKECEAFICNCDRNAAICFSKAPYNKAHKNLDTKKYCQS
Protein Wnt-3a, sequence (P27467 whole entry): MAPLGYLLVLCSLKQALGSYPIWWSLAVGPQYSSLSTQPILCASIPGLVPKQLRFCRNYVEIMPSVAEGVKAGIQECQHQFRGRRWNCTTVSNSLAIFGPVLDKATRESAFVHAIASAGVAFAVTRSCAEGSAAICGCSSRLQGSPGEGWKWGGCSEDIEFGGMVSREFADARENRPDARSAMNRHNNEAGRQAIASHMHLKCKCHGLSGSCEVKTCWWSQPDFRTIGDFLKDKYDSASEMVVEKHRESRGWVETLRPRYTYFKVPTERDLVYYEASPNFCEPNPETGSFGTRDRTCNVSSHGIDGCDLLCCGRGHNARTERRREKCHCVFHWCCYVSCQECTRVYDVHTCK

SMILES | IC50 (Cysteine protease ATG4B) | IC50 (Phospholipase A2) | IC50 (Caspase-3) | IC50 [1] | IC50 [2] | IC50 [3] | further results
O=C(Cn1cccc1C(=O)c1ccccc1)NCCC1=CCCCC1 | 20.1 µM (inactive) | 11.7 µM (active) | – | – | – | – | –
O=C(N/N=C/c1cccc(Oc2ccccc2)c1)c1cccc(O)c1 | – | – | 31.2 µM (active) | 24 µM (active) | 10.7 µM (active) | 25.7 µM (active) | –
O=C(NC(=S)NCCC1=CCCCC1)c1ccc(Br)o1 | 15.9 µM (active) | 9.44 µM (active) | – | – | – | – | EC50 [4]: 83 µM (active); EC50 (H4): 18.1 µM (active); EC50 [5]: 15.1 µM (active)
Cc1ccc(C(=O)Nc2nc(C)c(C(=O)Nc3ccc4c(c3)CCC4)s2)cc1 | – | – | 19.8 µM (active) | > 100 µM (inactive) | 8.21 µM (active) | > 100 µM (inactive) | AC50 [6]: 0.458 µM (active)
O=C(NCCNc1ccnc2cc(Cl)ccc12)c1ccccc1F | – | – | – | – | – | – | EC50 [7]: 39.7 µM (active); IC50 (Protein Wnt-3a): 3.93 µM (active)
COc1ccc(/C=N/Nc2nncc3ccccc23)c(OC)c1 | – | – | 7.23 µM (active) | 44.8 µM (active) | 3.46 µM (active) | 11.1 µM (active) | –
COc1ccc2c(c1)CCc1c(C(=O)N3CCc4ccccc4C3)noc1-2 | – | – | – | – | – | – | AC50 [8]: 6.29 µM (active)
CN1/C(=C\C=N\c2ccccc2)C(C)(C)c2ccccc21 | – | – | – | – | – | – | IC50 (Protein Wnt-3a): 7.05 µM (active)
O=C1C=CC(=O)N1c1ccc(Nc2ccccc2)cc1 | – | – | – | – | – | – | AC50 [8]: 1.85 µM (active); IC50 [9]: 27 µM (active)
O=C(O)c1cccc(CSc2nc(-c3ccc(Cl)cc3)cc(C(F)(F)F)n2)c1 | 12.8 µM (active) | 11.4 µM (active) | – | – | – | – | –

— ChEMBL document CHEMBL1201862, “PubChem BioAssay data set” (2004)
